Values quoted from earlier work in US4529593A, “Use of gallium salts to treat disorders of calcium homeostasis” (Sloan-Kettering Institute for Cancer Research, priority 1984, dated 1985).

Key:
[1] = test system: bone cells (particularly osteoclasts); details: comparatively brief exposure; Minkin 1973, Bockman unpublished; cited from earlier work
[2] = test system: blood calcium levels; details: prior knowledge; cited from earlier work

## CO[C@H](C(=O)[C@@H](O)[C@@H](C)O)[C@@H]1Cc2cc3cc(O[C@H]4C[C@@H](O[C@H]5C[C@@H](O)[C@H](O)[C@@H](C)O5)[C@H](O)[C@@H](C)O4)c(C)c(O)c3c(O)c2C(=O)[C@H]1O[C@H]1C[C@@H](O[C@H]2C[C@@H](O[C@H]3C[C@](C)(O)[C@H](O)[C@@H](C)O3)[C@@H](O)[C@@H](C)O2)[C@H](O)[C@@H](C)O1 [Mithramycin]
[1]
  loss of bone cells (particularly osteoclasts) number: considerable loss of bone cells
[2]
  blood calcium levels: can also reduce blood calcium levels
